#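 Five compound concentrations were applied to cells in 96-well plates for 48 hours; endpoints were derived by simple linear interpolation of the resulting dose-response curve. At the GI50, growth is halved. TGI marks complete inhibition of growth.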
# Assays:
# Assay in all cases: growth of human tumour cells (NCI), 48 h
# 786-0 renal = system: 786-0 renal
# A498 renal = system: A498 renal
# A549 NSCLC = system: A549 NSCLC
# ACHN renal = system: ACHN renal
# BT-549 breast = system: BT-549 breast
# CAKI-1 renal = system: CAKI-1 renal
# CCRF-CEM leukemia = system: CCRF-CEM leukemia
# COLO 205 colon = system: COLO 205 colon
# DU-145 prostate = system: DU-145 prostate
# EKVX NSCLC = system: EKVX NSCLC
# HCC-2998 colon = system: HCC-2998 colon
# HCT-116 colon = system: HCT-116 colon
# HCT-15 colon = system: HCT-15 colon
# HOP-62 NSCLC = system: HOP-62 NSCLC
# HT29 colon = system: HT29 colon
# IGROV1 ovarian = system: IGROV1 ovarian
# K-562 leukemia = system: K-562 leukemia
# KM12 colon = system: KM12 colon
# LOX IMVI melanoma = system: LOX IMVI melanoma
# M14 melanoma = system: M14 melanoma
# MALME-3M melanoma = system: MALME-3M melanoma
# MCF7 breast = system: MCF7 breast
# MDA-MB-231 breast = system: MDA-MB-231 breast
# MDA-MB-435 = system: MDA-MB-435
# MOLT-4 leukemia = system: MOLT-4 leukemia
# NCI-H226 lung = system: NCI-H226 lung
# NCI-H23 lung = system: NCI-H23 lung
# NCI-H460 lung = system: NCI-H460 lung
# NCI-H522 lung = system: NCI-H522 lung
# NCI/ADR-RES ovarian = system: NCI/ADR-RES ovarian
# OVCAR-3 ovarian = system: OVCAR-3 ovarian
# OVCAR-4 ovarian = system: OVCAR-4 ovarian
# OVCAR-5 ovarian = system: OVCAR-5 ovarian
# OVCAR-8 ovarian = system: OVCAR-8 ovarian
# PC-3 prostate = system: PC-3 prostate
# RXF 393 renal = system: RXF 393 renal
# SF-268 CNS = system: SF-268 CNS
# SF-295 CNS = system: SF-295 CNS
# SF-539 CNS = system: SF-539 CNS
# SK-MEL-2 melanoma = system: SK-MEL-2 melanoma
# SK-MEL-28 melanoma = system: SK-MEL-28 melanoma
# SK-MEL-5 melanoma = system: SK-MEL-5 melanoma
# SK-OV-3 ovarian = system: SK-OV-3 ovarian
# SN12C renal = system: SN12C renal
# SNB-19 CNS = system: SNB-19 CNS
# SNB-75 CNS = system: SNB-75 CNS
# SW-620 colon = system: SW-620 colon
# T-47D breast = system: T-47D breast
# TK-10 renal = system: TK-10 renal
# U251 CNS = system: U251 CNS
# UACC-257 melanoma = system: UACC-257 melanoma
# UACC-62 melanoma = system: UACC-62 melanoma
# UO-31 renal = system: UO-31 renal
# HL-60(TB) leukemia = system: HL-60(TB) leukemia
# HOP-92 NSCLC = system: HOP-92 NSCLC
# HS 578T breast = system: HS 578T breast
# RPMI-8226 leukemia = system: RPMI-8226 leukemia
smiles,measurement,setting,value
N#CC(C#N)=Cc1ccc(-c2ccc(-c3nc4ccccc4o3)cc2)o1,GI50,786-0 renal,15.8 µM
same,TGI,786-0 renal,34 µM
same,GI50,A498 renal,24.9 µM
same,TGI,A498 renal,70 µM
same,GI50,A549 NSCLC,28.2 µM
same,TGI,A549 NSCLC,> 100 µM
same,GI50,ACHN renal,50.8 µM
same,TGI,ACHN renal,> 100 µM
same,GI50,BT-549 breast,> 100 µM
same,TGI,BT-549 breast,> 100 µM
same,GI50,CAKI-1 renal,40 µM
same,TGI,CAKI-1 renal,> 100 µM
same,GI50,CCRF-CEM leukemia,11.6 µM
same,TGI,CCRF-CEM leukemia,> 100 µM
same,GI50,COLO 205 colon,40 µM
same,TGI,COLO 205 colon,> 100 µM
same,GI50,DU-145 prostate,36.5 µM
same,TGI,DU-145 prostate,> 100 µM
same,GI50,EKVX NSCLC,> 100 µM
same,TGI,EKVX NSCLC,> 100 µM
same,GI50,HCC-2998 colon,47.1 µM
same,TGI,HCC-2998 colon,96.4 µM
same,GI50,HCT-116 colon,18.2 µM
same,TGI,HCT-116 colon,42.3 µM
same,GI50,HCT-15 colon,20.2 µM
same,TGI,HCT-15 colon,> 100 µM
same,GI50,HOP-62 NSCLC,21.6 µM
same,TGI,HOP-62 NSCLC,51.9 µM
same,GI50,HT29 colon,41.2 µM
same,TGI,HT29 colon,> 100 µM
same,GI50,IGROV1 ovarian,65.8 µM
same,TGI,IGROV1 ovarian,> 100 µM
same,GI50,K-562 leukemia,19.3 µM
same,TGI,K-562 leukemia,> 100 µM
same,GI50,KM12 colon,19.4 µM
same,TGI,KM12 colon,> 100 µM
same,GI50,LOX IMVI melanoma,16.6 µM
same,TGI,LOX IMVI melanoma,44.8 µM
same,GI50,M14 melanoma,77.4 µM
same,TGI,M14 melanoma,> 100 µM
same,GI50,MALME-3M melanoma,41.9 µM
same,TGI,MALME-3M melanoma,> 100 µM
same,GI50,MCF7 breast,7.99 µM
same,TGI,MCF7 breast,> 100 µM
same,GI50,MDA-MB-231 breast,19.9 µM
same,TGI,MDA-MB-231 breast,69.5 µM
same,GI50,MDA-MB-435,57 µM
same,TGI,MDA-MB-435,> 100 µM
same,GI50,MOLT-4 leukemia,12.1 µM
same,TGI,MOLT-4 leukemia,> 100 µM
same,GI50,NCI-H226 lung,21 µM
same,TGI,NCI-H226 lung,99.7 µM
same,GI50,NCI-H23 lung,27.2 µM
same,TGI,NCI-H23 lung,93.8 µM
same,GI50,NCI-H460 lung,38.4 µM
same,TGI,NCI-H460 lung,> 100 µM
same,GI50,NCI-H522 lung,60.4 µM
same,TGI,NCI-H522 lung,> 100 µM
same,GI50,NCI/ADR-RES ovarian,20.8 µM
same,TGI,NCI/ADR-RES ovarian,50.1 µM
same,GI50,OVCAR-3 ovarian,66.7 µM
same,TGI,OVCAR-3 ovarian,> 100 µM
same,GI50,OVCAR-4 ovarian,> 100 µM
same,TGI,OVCAR-4 ovarian,> 100 µM
same,GI50,OVCAR-5 ovarian,27.1 µM
same,TGI,OVCAR-5 ovarian,52 µM
same,GI50,OVCAR-8 ovarian,29.9 µM
same,TGI,OVCAR-8 ovarian,> 100 µM
same,GI50,PC-3 prostate,29.5 µM
same,TGI,PC-3 prostate,> 100 µM
same,GI50,RXF 393 renal,96.2 µM
same,TGI,RXF 393 renal,> 100 µM
same,GI50,SF-268 CNS,52 µM
same,TGI,SF-268 CNS,> 100 µM
same,GI50,SF-295 CNS,30.1 µM
same,TGI,SF-295 CNS,> 100 µM
same,GI50,SF-539 CNS,31.1 µM
same,TGI,SF-539 CNS,> 100 µM
same,GI50,SK-MEL-2 melanoma,> 100 µM
same,TGI,SK-MEL-2 melanoma,> 100 µM
same,GI50,SK-MEL-28 melanoma,> 100 µM
same,TGI,SK-MEL-28 melanoma,> 100 µM
same,GI50,SK-MEL-5 melanoma,13.1 µM
same,TGI,SK-MEL-5 melanoma,62.5 µM
same,GI50,SK-OV-3 ovarian,38.3 µM
same,TGI,SK-OV-3 ovarian,> 100 µM
same,TGI,SN12C renal,16.5 µM
same,GI50,SNB-19 CNS,> 100 µM
same,TGI,SNB-19 CNS,> 100 µM
same,GI50,SNB-75 CNS,> 100 µM
same,TGI,SNB-75 CNS,> 100 µM
same,GI50,SW-620 colon,20.5 µM
same,TGI,SW-620 colon,> 100 µM
same,GI50,T-47D breast,5.04 µM
same,TGI,T-47D breast,90.1 µM
same,GI50,TK-10 renal,23.7 µM
same,TGI,TK-10 renal,77.3 µM
same,GI50,U251 CNS,21.7 µM
same,TGI,U251 CNS,52.5 µM
same,GI50,UACC-257 melanoma,> 100 µM
same,TGI,UACC-257 melanoma,> 100 µM
same,GI50,UACC-62 melanoma,42.4 µM
same,TGI,UACC-62 melanoma,> 100 µM
same,GI50,UO-31 renal,58.4 µM
same,TGI,UO-31 renal,> 100 µM
CC1(C)CC2CC(C)(CN2c2ncnc3ccc(Br)cc23)C1 (centres undefined),GI50,786-0 renal,12.8 µM
same,TGI,786-0 renal,25.4 µM
same,GI50,A549 NSCLC,2.82 µM
same,TGI,A549 NSCLC,9.11 µM
same,GI50,ACHN renal,14.1 µM
same,TGI,ACHN renal,27 µM
same,GI50,CAKI-1 renal,10.2 µM
same,TGI,CAKI-1 renal,22 µM
same,GI50,CCRF-CEM leukemia,6.61 µM
same,TGI,CCRF-CEM leukemia,39.8 µM
same,GI50,COLO 205 colon,15.4 µM
same,TGI,COLO 205 colon,29.8 µM
same,GI50,DU-145 prostate,12.4 µM
same,TGI,DU-145 prostate,24.9 µM
same,GI50,HCC-2998 colon,11.7 µM
same,TGI,HCC-2998 colon,23.9 µM
same,GI50,HCT-15 colon,15.5 µM
same,TGI,HCT-15 colon,28.9 µM
same,GI50,HL-60(TB) leukemia,1.38 µM
same,TGI,HL-60(TB) leukemia,3.48 µM
same,GI50,HOP-62 NSCLC,12.9 µM
same,TGI,HOP-62 NSCLC,25.6 µM
same,GI50,HOP-92 NSCLC,13.4 µM
same,TGI,HOP-92 NSCLC,27.3 µM
same,GI50,HS 578T breast,10.3 µM
same,TGI,HS 578T breast,30.4 µM
same,GI50,IGROV1 ovarian,10.9 µM
same,TGI,IGROV1 ovarian,22.8 µM
same,GI50,K-562 leukemia,1.62 µM
same,TGI,K-562 leukemia,6.79 µM
same,GI50,KM12 colon,11.1 µM
same,TGI,KM12 colon,26.5 µM
same,GI50,LOX IMVI melanoma,13.7 µM
same,TGI,LOX IMVI melanoma,26.5 µM
same,GI50,M14 melanoma,11 µM
same,TGI,M14 melanoma,22.9 µM
same,GI50,MALME-3M melanoma,0.195 µM
same,TGI,MALME-3M melanoma,11.6 µM
same,GI50,MDA-MB-231 breast,2 µM
same,TGI,MDA-MB-231 breast,12.4 µM
same,GI50,MDA-MB-435,3.98 µM
same,TGI,MDA-MB-435,27.7 µM
same,GI50,MOLT-4 leukemia,0.134 µM
same,TGI,MOLT-4 leukemia,11.2 µM
same,GI50,NCI-H226 lung,3.32 µM
same,TGI,NCI-H226 lung,16.2 µM
same,GI50,NCI-H23 lung,8.74 µM
same,TGI,NCI-H23 lung,20.8 µM
same,GI50,NCI-H460 lung,11.1 µM
same,TGI,NCI-H460 lung,35.2 µM
same,GI50,NCI-H522 lung,13 µM
same,TGI,NCI-H522 lung,29.3 µM
same,GI50,NCI/ADR-RES ovarian,12.8 µM
same,TGI,NCI/ADR-RES ovarian,25.4 µM
same,GI50,OVCAR-3 ovarian,2.72 µM
same,TGI,OVCAR-3 ovarian,13.1 µM
same,GI50,OVCAR-4 ovarian,14.1 µM
same,TGI,OVCAR-4 ovarian,27.1 µM
same,GI50,OVCAR-5 ovarian,14.1 µM
same,TGI,OVCAR-5 ovarian,27.1 µM
same,GI50,OVCAR-8 ovarian,12.3 µM
same,TGI,OVCAR-8 ovarian,25 µM
same,GI50,RPMI-8226 leukemia,2.58 µM
same,TGI,RPMI-8226 leukemia,13.5 µM
same,GI50,RXF 393 renal,11 µM
same,TGI,RXF 393 renal,23.6 µM
same,GI50,SF-268 CNS,17.9 µM
same,TGI,SF-268 CNS,37.9 µM
same,GI50,SF-295 CNS,3.34 µM
same,TGI,SF-295 CNS,16.3 µM
same,GI50,SK-MEL-2 melanoma,28.8 µM
same,TGI,SK-MEL-2 melanoma,> 100 µM
same,GI50,SK-MEL-28 melanoma,13.9 µM
same,TGI,SK-MEL-28 melanoma,28 µM
same,GI50,SK-MEL-5 melanoma,8.88 µM
same,TGI,SK-MEL-5 melanoma,21.6 µM
same,GI50,SK-OV-3 ovarian,16.8 µM
same,TGI,SK-OV-3 ovarian,31.2 µM
same,GI50,SN12C renal,10.3 µM
same,TGI,SN12C renal,21.9 µM
same,GI50,SNB-19 CNS,14.4 µM
same,TGI,SNB-19 CNS,30.5 µM
same,GI50,SW-620 colon,15 µM
same,TGI,SW-620 colon,30.7 µM
same,GI50,T-47D breast,13 µM
same,TGI,T-47D breast,31.2 µM
same,GI50,TK-10 renal,11.4 µM
same,TGI,TK-10 renal,23.6 µM
same,GI50,U251 CNS,13.3 µM
same,TGI,U251 CNS,26.1 µM
same,GI50,UACC-62 melanoma,5.76 µM
same,TGI,UACC-62 melanoma,19.5 µM
same,GI50,UO-31 renal,14 µM
same,TGI,UO-31 renal,56.1 µM

# From PubChem BioAssay (NCI)
